Data on 31 compounds can be found in US20250179061A1 (SIRONAX LTD., priority 2022, published 2025).

For the assay, the system named is HT-29 cells. Description: HT-29 necroptosis cell viability assay (TNF-α/SMAC mimetic/zVAD-FMK, CellTiter-Glo). Format: cell-based. Particulars: class symbols for IC50, read-out: Activity. The method in brief:
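Necroptosis was triggered by TNF-α (10 ng/ml), SMAC mimetic (6 μM) and zVAD-FMK (10 μM) in serum-free medium during 20 h compound exposure (10 concentrations, threefold steps) of HT-29 cells. IC50 from duplicate dose-responses uses CellTiter-Glo ATP luminescence as viability read-out.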

[1] abbreviates: Homo sapiens, HT-29, HT-29 necroptosis cell viability assay.

Read-outs that look alike come from different tables or passages of the source.

On to `Cc1nc(CC(N)=O)c(Oc2ccc(-n3ncn(Cc4c(F)cccc4F)c3=O)cc2F)s1` [Example 138, 2-(5-(4-(4-(2,6-difluorobenzyl)-5-oxo-4,5-dihydro-1H-1,2,4-triazol-1-yl)-2-fluorophenoxy)-2-methylthiazol-4-yl)acetamide], for which the IC50 under setting [1] was less than 0.1 µM.

For `Cc1nc(CC#N)sc1Oc1ccc(-n2ncn(Cc3c(F)cccc3F)c2=O)cc1Cl` [Example 139, 2-(5-(2-chloro-4-(4-(2,6-difluorobenzyl)-5-oxo-4,5-dihydro-1H-1,2,4-triazol-1-yl)phenoxy)-4-methylthiazol-2-yl)acetonitrile], the IC50 under setting [1] was less than 0.1 µM.

For the compound `Cn1nc(CC#N)cc1Oc1ccc(-n2ncn(Cc3c(F)cccc3F)c2=O)cc1F` [Example 140, 2-(5-(4-(4-(2,6-difluorobenzyl)-5-oxo-4,5-dihydro-1H-1,2,4-triazol-1-yl)-2-fluorophenoxy)-1-methyl-1H-pyrazol-3-yl)acetonitrile], the IC50 under setting [1] is less than 0.1 µM.

Regarding `Cc1nc(CC#N)cn1Cc1ccc(-n2ncn(Cc3c(F)cccc3F)c2=O)cc1F` [Example 141, 2-(1-(4-(4-(2,6-difluorobenzyl)-5-oxo-4,5-dihydro-1H-1,2,4-triazol-1-yl)-2-fluorobenzyl)-2-methyl-1H-imidazol-4-yl)acetonitrile], the IC50 under setting [1] was 0.1 to 1 µM.

`Cc1nc(CC#N)c(C)n1Cc1ccc(-n2ncn(Cc3c(F)cccc3F)c2=O)cc1F` [Example 142, 2-(1-(4-(4-(2,6-difluorobenzyl)-5-oxo-4,5-dihydro-1H-1,2,4-triazol-1-yl)-2-fluorobenzyl)-2,5-dimethyl-1H-imidazol-4-yl)acetonitrile]: under setting [1], the IC50 was in the range of 1 to 10 µM.

On to `Cc1c(CC(N)=O)nn(C)c1Oc1ccc(-n2ncn(Cc3c(F)cccc3F)c2=O)cc1F` [Example 143, 2-(5-(4-(4-(2,6-difluorobenzyl)-5-oxo-4,5-dihydro-1H-1,2,4-triazol-1-yl)-2-fluorophenoxy)-1,4-dimethyl-1H-pyrazol-3-yl)acetamide], for which, under setting [1], the IC50 is less than 0.1 µM.

Turning to `CC1(O)CN(c2nc(C(F)F)c(Oc3ccc(-n4ncn(Cc5c(F)cccc5F)c4=O)cc3F)s2)C1` [Example 144, 4-(2,6-difluorobenzyl)-2-(4-((4-(difluoromethyl)-2-(3-hydroxy-3-methylazetidin-1-yl)thiazol-5-yl)oxy)-3-fluorophenyl)-2,4-dihydro-3H-1,2,4-triazol-3-one], the IC50 under setting [1] was less than 0.1 µM.

Turning to `O=c1n(Cc2c(F)cccc2F)cnn1-c1ccc(Oc2scnc2CO)c(F)c1` [Example 145, 4-(2,6-difluorobenzyl)-2-(3-fluoro-4-((4-(hydroxymethyl)thiazol-5-yl)oxy)phenyl)-2,4-dihydro-3H-1,2,4-triazol-3-one], the IC50 under setting [1] is less than 0.1 µM.

In the case of `Cc1nc(CO)c(Oc2ccc(-n3ncn(Cc4c(F)cccc4F)c3=O)cc2)s1` [Example 146], the IC50 under setting [1] is 0.1 to 1 µM.

`O=c1n(Cc2c(F)cccc2F)cnn1-c1ccc(Oc2scnc2C(F)F)c(F)c1` [Example 147, 4-(2,6-difluorobenzyl)-2-(4-((4-(difluoromethyl)thiazol-5-yl)oxy)-3-fluorophenyl)-2,4-dihydro-3H-1,2,4-triazol-3-one]: under setting [1], the IC50 was less than 0.1 µM.

Consider `Cc1nc(C(=O)NCCN)sc1Oc1ccc(-n2ncn(Cc3ccccc3F)c2=O)cc1F` [Example 148, N-(2-aminoethyl)-5-(2-fluoro-4-(4-(2-fluorobenzyl)-5-oxo-4,5-dihydro-1H-1,2,4-triazol-1-yl)phenoxy)-4-methylthiazole-2-carboxamide], for which, under setting [1], the IC50 was less than 0.1 µM.

Regarding `O=c1n(Cc2c(F)cccc2F)cnn1-c1ccc(Oc2ncsc2C(F)F)c(F)c1` [Example 152, 4-(2,6-difluorobenzyl)-2-(4-((5-(difluoromethyl)thiazol-4-yl)oxy)-3-fluorophenyl)-2,4-dihydro-3H-1,2,4-triazol-3-one], the IC50 under setting [1] is less than 0.1 µM.

For `CC1(N)CN(c2nc(C(F)F)c(Oc3ccc(-n4ncn(Cc5c(F)cccc5F)c4=O)cc3F)s2)C1` [Example 153, 2-(4-((2-(3-amino-3-methylazetidin-1-yl)-4-(difluoromethyl)thiazol-5-yl)oxy)-3-fluorophenyl)-4-(2,6-difluorobenzyl)-2,4-dihydro-3H-1,2,4-triazol-3-one], the IC50 under setting [1] is less than 0.1 µM.

For the compound `Cc1nc(CC(C)(C)O)sc1Oc1ccc(-n2ncn(Cc3c(F)cccc3F)c2=O)cc1F` [Example 154, 4-(2,6-difluorobenzyl)-2-(3-fluoro-4-((2-(2-hydroxy-2-methylpropyl)-4-methylthiazol-5-yl)oxy)phenyl)-2,4-dihydro-3H-1,2,4-triazol-3-one], the IC50 under setting [1] is less than 0.1 µM.

In the case of `Cc1nc(CC#N)sc1Oc1ccc(-n2ncn(Cc3c(F)cccc3F)c2=O)cc1F` [Example 155, 2-(5-(4-(4-(2,6-difluorobenzyl)-5-oxo-4,5-dihydro-1H-1,2,4-triazol-1-yl)-2-fluorophenoxy)-4-methylthiazol-2-yl)acetonitrile], the IC50 under setting [1] was less than 0.1 µM.

As to `Cc1nc(CO)sc1Oc1ccc(-n2ncn(Cc3c(F)cccc3F)c2=O)cc1F` [Example 156, 4-(2,6-difluorobenzyl)-2-(3-fluoro-4-((2-(hydroxymethyl)-4-methylthiazol-5-yl)oxy)phenyl)-2,4-dihydro-3H-1,2,4-triazol-3-one], the IC50 under setting [1] is less than 0.1 µM.

In the case of `Cc1nc(CO)sc1Oc1ccc(-n2ncn(Cc3c(F)cccc3F)c2=O)cc1` [Example 157, 4-(2,6-difluorobenzyl)-2-(4-((2-(hydroxymethyl)-4-methylthiazol-5-yl)oxy)phenyl)-2,4-dihydro-3H-1,2,4-triazol-3-one], the IC50 under setting [1] was less than 0.1 µM.

With `Cc1c(CO)nn(C)c1Oc1ccc(-n2nc3n(c2=O)C(c2ccccc2)CC3)cc1F` (stereo not shown) [Example 158, 2-(3-fluoro-4-((3-(hydroxymethyl)-1,4-dimethyl-1H-pyrazol-5-yl)oxy)phenyl)-5-phenyl-2,5,6,7-tetrahydro-3H-pyrrolo[2,1-c][1,2,4]triazol-3-one], the IC50 under setting [1] was less than 0.1 µM.

As for `Cc1nc(CN)sc1Oc1ccc(-n2ncn(Cc3c(F)cccc3F)c2=O)cc1F` [Example 159, 2-(4-((2-(aminomethyl)-4-methylthiazol-5-yl)oxy)-3-fluorophenyl)-4-(2,6-difluorobenzyl)-2,4-dihydro-3H-1,2,4-triazol-3-one], the IC50 under setting [1] was less than 0.1 µM.

For the compound `Cc1nc(CN)sc1Oc1ccc(-n2ncn(Cc3c(F)cccc3F)c2=O)cc1` [Example 160, 2-(4-((2-(aminomethyl)-4-methylthiazol-5-yl)oxy)phenyl)-4-(2,6-difluorobenzyl)-2,4-dihydro-3H-1,2,4-triazol-3-one], the IC50 under setting [1] was 0.1 to 1 µM.

In the case of `O=c1n(Cc2c(F)cccc2F)cnn1C1CCC(Oc2ccccc2)C1` (stereo not shown) [Example 161, 4-(2,6-difluorobenzyl)-2-(3-phenoxycyclopentyl)-2,4-dihydro-3H-1,2,4-triazol-3-one], the IC50 under setting [1] lay within 1 to 10 µM.

Consider `Cc1ncsc1OC1CCC(n2ncn(Cc3c(F)cccc3F)c2=O)CC1` (stereo not shown) [Example 162, 4-(2,6-difluorobenzyl)-2-(4-((4-methylthiazol-5-yl)oxy)cyclohexyl)-2,4-dihydro-3H-1,2,4-triazol-3-one], for which the IC50 under setting [1] fell in the range of 0.1 to 1 µM.

As to `Cc1nc(C(C)N)sc1Oc1ccc(-n2ncn(Cc3c(F)cccc3F)c2=O)cc1F` (stereo not shown) [Example 163, 2-(4-((2-(1-aminoethyl)-4-methylthiazol-5-yl)oxy)-3-fluorophenyl)-4-(2,6-difluorobenzyl)-2,4-dihydro-3H-1,2,4-triazol-3-one], the IC50 under setting [1] is less than 0.1 µM.

As to `C/C(=N\O)c1nc(C)c(Oc2ccc(-n3ncn(Cc4c(F)cccc4F)c3=O)cc2F)s1` [Example 164, 4-(2,6-difluorobenzyl)-2-(3-fluoro-4-((2-(1-(hydroxyimino)ethyl)-4-methylthiazol-5-yl)oxy)phenyl)-2,4-dihydro-3H-1,2,4-triazol-3-one], the IC50 under setting [1] was less than 0.1 µM.

As for `O=c1n(Cc2c(F)cccc2F)cnn1-c1cnc(Oc2ccccc2)s1` [Example 165, 4-(2,6-difluorobenzyl)-2-(2-phenoxythiazol-5-yl)-2,4-dihydro-3H-1,2,4-triazol-3-one], the IC50 under setting [1] lay within 0.1 to 1 µM.

Turning to `Cc1nc(Oc2cccnc2)sc1-n1ncn(Cc2c(F)cccc2F)c1=O` [Example 166, 4-(2,6-difluorobenzyl)-2-(4-methyl-2-(pyridin-3-yloxy)thiazol-5-yl)-2,4-dihydro-3H-1,2,4-triazol-3-one], the IC50 under setting [1] was in the range of 0.1 to 1 µM.

For the compound `Cc1nc(C2CC(C(N)=O)C2)sc1Oc1ccc(-n2ncn(Cc3c(F)cccc3F)c2=O)cc1F` (stereo not shown) [Example 167, 3-(5-(4-(4-(2,6-difluorobenzyl)-5-oxo-4,5-dihydro-1H-1,2,4-triazol-1-yl)-2-fluorophenoxy)-4-methylthiazol-2-yl)cyclobutane-1-carboxamide], the IC50 (HT-29 necroptosis cell viability assay) was less than 0.1 µM.

`Cc1nc(CC(N)=O)sc1Oc1ccc(-n2ncn(Cc3c(F)cccc3F)c2=O)cc1F` [Example 168, 2-(5-(4-(4-(2,6-difluorobenzyl)-5-oxo-4,5-dihydro-1H-1,2,4-triazol-1-yl)-2-fluorophenoxy)-4-methylthiazol-2-yl)acetamide]: the IC50 under setting [1] is less than 0.1 µM.

`COc1cc(Oc2nc(C)c(-n3ncn(Cc4c(F)cccc4F)c3=O)s2)ccn1` [Example 169, 4-(2,6-difluorobenzyl)-2-(2-((2-methoxypyridin-4-yl)oxy)-4-methylthiazol-5-yl)-2,4-dihydro-3H-1,2,4-triazol-3-one]: the IC50 under setting [1] lay in the range of 1 to 10 µM.

In the case of `Cc1nc(C(F)(F)C(=O)O)sc1Oc1ccc(-n2ncn(Cc3c(F)cccc3F)c2=O)cc1F` [Example 170, 2-(5-(4-(4-(2,6-difluorobenzyl)-5-oxo-4,5-dihydro-1H-1,2,4-triazol-1-yl)-2-fluorophenoxy)-4-methylthiazol-2-yl)-2,2-difluoroacetic acid], the IC50 under setting [1] lay in the range of 0.1 to 1 µM.

Take `COC(=O)c1ncsc1Nc1ccc(-n2ncn(Cc3c(F)cccc3F)c2=O)cc1` [Example 171, methyl 5-((4-(4-(2,6-difluorobenzyl)-5-oxo-4,5-dihydro-1H-1,2,4-triazol-1-yl)phenyl)amino)thiazole-4-carboxylate]: the IC50 under setting [1] fell in the range of 1 to 10 µM.
